Data published in PMC11119685, “Undescribed Cyclohexene and Benzofuran Alkenyl Derivatives from Choerospondias axillaris, a Potential Hypoglycemic Fruit” (Foods, 2024).
Like-named read-outs stand apart in the source and are kept apart here.

Target: α-glucosidase (Saccharomyces cerevisiae, UniProt P53341)
Experiment: α-Glucosidase inhibitory assay (pNPG substrate, absorbance at 405 nm)
Format: biochemical
Settings: for inhibition at 50 µM: read-out: Inhibition Rate (in vitro α-glucosidase inhibitory activity); for α-glucosidase inhibitory activity, in words: qualitative statement, tested at 50 μM
Protocol: The α-glucosidase inhibitory activity was evaluated according to a previous method. In brief, α-glucosidase solution (0.025 U/mL, dissolved in 0.1 M phosphate-buffered saline (PBS) solution with a pH of 6.8), was mixed with 50 μM inhibitor and incubated at 37 °C for 10 min. pNPG solution (1 μM, dissolved in 0.1 M PBS solution) was added to the mixed solution and incubated at 37 °C for 40 min. Sodium carbonate (1 M) solution was added to terminate the reaction. […] The absorbance was recorded at 405 nm usin a microplate reader. The α-glucosidase inhibitory rate was calculated as follows:
Inhibitory rate% = [(A0 − A1)/A0)] × 100%, where:
A0 and A1 represent the absorbance of the blank group (containing enzyme, pNPG, PBS buffer, and DMSO), the sample group (containing enzyme, pNPG, PBS buffer, and samples), respectively. IC50 values were computed based on the Reed–Muench method.
All data were analyzed and presented as mean values ± SD from three independent assays (n = 3). The IC50 values were determined by Graph Pad Prism version 5 (University of California, San Diego, CA, USA).

[1] = at a concentration of 50 μM, means ± SD (n = 3)

α-glucosidase, sequence (P53341 whole entry): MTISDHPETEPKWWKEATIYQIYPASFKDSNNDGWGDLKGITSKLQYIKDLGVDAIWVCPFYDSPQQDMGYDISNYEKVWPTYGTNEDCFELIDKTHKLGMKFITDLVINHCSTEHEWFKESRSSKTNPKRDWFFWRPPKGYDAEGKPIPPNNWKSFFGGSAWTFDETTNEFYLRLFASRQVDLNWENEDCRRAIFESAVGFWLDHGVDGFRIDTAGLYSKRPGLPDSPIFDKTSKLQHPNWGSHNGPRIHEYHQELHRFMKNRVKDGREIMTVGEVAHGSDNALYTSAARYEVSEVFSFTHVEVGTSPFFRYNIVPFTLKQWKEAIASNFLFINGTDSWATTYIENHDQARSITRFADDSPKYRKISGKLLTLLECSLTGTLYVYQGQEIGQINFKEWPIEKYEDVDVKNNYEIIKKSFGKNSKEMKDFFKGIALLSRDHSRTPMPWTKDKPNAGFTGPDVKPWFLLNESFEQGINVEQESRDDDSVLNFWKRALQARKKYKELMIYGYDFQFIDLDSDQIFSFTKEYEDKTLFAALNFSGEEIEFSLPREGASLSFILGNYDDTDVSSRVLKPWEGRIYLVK

| inhibition at 50 µM [1] | α-glucosidase inhibitory activity, in words | SMILES | inhibition at 50 µM |
| --- | --- | --- | --- |
|  |  | O=C1C[C@@H](c2ccc(O)cc2)Oc2cc(O)cc(O)c21 [Compound 13, naringenin] | 65.1 ± 2% |
| 37.6 ± 0.12% | weak inhibitory activity | COc1cc(C[C@@H](CO)[C@H](CO)Cc2ccc(O)c(OC)c2)ccc1O [Compound 17, (−)-secoisolariciresinol] |  |
| 43.8 ± 1.3% | comparable α-glucosidase inhibitory | O=C1c2c(O)cc(O)cc2O[C@H](c2ccc(O)cc2)[C@H]1O [Compound 11, dihydrokaempferol] |  |
| 4.8 ± 0.38% | weak inhibitory activity | COc1cc(C2OCC3C(c4cc(OC)c(O)c(OC)c4)OCC23)cc(OC)c1O (centres unmarked) [Compound 18, lirioresinol] |  |
| -8.1 ± 2.4% |  | CCCCC=CCCCCCCCCCC1(O)CC(O)CCC1O [Compound 1, (1S,2R,4S)-2-[10′(Z)-pentadecenyl]-cyclohexane-1,2,4-triol] |  |
| 98.7 ± 0.2% |  | CCCC/C=C\CCCCCCCCCCCc1cc2cc(O)ccc2o1 [Compound 8, choerosponol A] |  |
| 16.6 ± 0.57% | weak inhibitory activity | COc1cc([C@H]2c3cc(O)c(OC)cc3C[C@@H](CO)[C@@H]2CO)ccc1O [Compound 15, (+)-isolariciresinol] |  |
| -11.2 ± 0.94% |  | CCCCC=CCCCCCCCCCC(O)CC1=CC(=O)CC(O)C1O [Compound 5, (4S,5S,2′R)-trihydroxy-3-[12′(Z)-heptadecenyl]-2-cyclohexenone] |  |
| -13.6 ± 1.7% |  | CCCCC=CCCCCCCCCCCCCCC1(O)CC(O)C=CC1O [Compound 3, (1S,2R,4S)-2-[14′(Z)-nonadecenyl]-cyclohex-5-en-1,2,4-triol] |  |
| 7.5 ± 1.4% | weak inhibitory activity | COc1cc([C@@H]2c3c(cc(OC)c(O)c3OC)C[C@H](CO)[C@H]2CO)cc(OC)c1O [Compound 16, (−)-lyoniresinol] |  |
| 96.7 ± 0.51% |  | CCCC/C=C\CCCCCCCc1cc2cc(O)ccc2o1 [Compound 7, 2-[8′(Z)-tridecenyl]-benzofuran-5-ol] |  |
| 66.6 ± 0.92% |  | O=C1C[C@@H](c2ccc(O)c(O)c2)Oc2cc(O)cc(O)c21 [Compound 12, eriodictyol] |  |
| 11.1 ± 1.1% |  | CCCCC=CCCCCCCCCCC(O)CC1=CC(=O)CCC1O [Compound 4, (4R,2′R)-dihydroxy-3-[12′(Z)-heptadecenyl]-2-cyclohexenone] |  |
| -12.4 ± 0.66% |  | CCCCC=CCCCCCCCCCCCC1(O)CC(O)C=CC1O [Compound 2, (1S,2R,4S)-2-[12′(Z)-heptadecenyl]-cyclohex-5-en-1,2,4-triol] |  |
| 97.7 ± 0.19% |  | CCCC/C=C\CCCCCCCCCc1cc2cc(O)ccc2o1 [Compound 6, 2-[10′(Z)-pentadecenyl]-benzofuran-5-ol] |  |

| SMILES | inhibition at 50 µM [1] | α-glucosidase inhibitory activity, in words | inhibition at 50 µM |
| --- | --- | --- | --- |
| Oc1cc(O)c2c(c1)O[C@H](c1ccc(O)c(O)c1)[C@@H](O)C2 [Compound 9, catechin] | 61.1 ± 1.6% | notable α-glucosidase inhibition |  |
| C[C@@H]1O[C@@H](Oc2c(-c3ccc(O)c(O)c3)oc3cc(O)cc(O)c3c2=O)[C@H](O)[C@H](O)[C@H]1O [Compound 14, quercetin-3-O-α-L-rhamnoside] |  | comparable α-glucosidase inhibitory | 26.2 ± 1.3% |
| O=C1c2c(O)cc(O)cc2O[C@H](c2ccc(O)c(O)c2)[C@H]1O [Compound 10, dihydroquercetin] |  | comparable α-glucosidase inhibitory | 36.4 ± 0.72% |
